{
  "source": "paper PMC6977461",
  "about": "(Chemical Science, 2019)",
  "key": {"[1]": {"experiment": "mouse plasma degradation assay (Methods MP1-MP3)", "format": "in vitro ADME", "conditions": "mouse plasma diluted 1/1 with PBS; mouse plasma/PBS pH 7.4 (1/1), 5 µM, 37 °C, acetonitrile quench, LC-MS extracted ion chromatogram; MP1 for 2-8, MP2 for 9-11, MP3 for 12-14; mean, n = 3; read-out: Mouse plasma t1/2 (converted)", "protocol": "The oligomer was then diluted 1/50 with a solution of plasma/PBS pH 7.4 (1/1) to afford a final concentration of 5μM and incubated at 37°C. […] (t = 0 min was determined using the reaction without plasma). The samples were frozen at -80°C before analysis. […] The supernatant was analyzed by LC-MS. The time course of oligomer degradation was determined by integrating the area of the peak in the extracted ion chromatogram. […] The oligomer was then diluted 1/50 with a solution of plasma/PBS pH 7.4 (1/1) to afford a final concentration of 5μM and incubated at 37°C. […] The oligomer was then diluted 1/50 with a solution of plasma/PBS pH 7.4 (1/1) to afford a final concentration of 5μM and incubated at 37°C. […] Animals. […] A standard chow diet (RM1 (E) 801492, SDS) and tap water were provided ad libitum. All animal protocols done by Physiogenex S.A.S were reviewed and approved by the local (Comité […] national ([…]"}, "mouse GLP-1 receptor": {"target": "T1, mouse GLP-1 receptor (Mus musculus, UniProt O35659)", "T1 construct": "βTC6 cells which express GLP-1R endogenously; host or cells: βTC6 cells", "T1 sequence (O35659 22-463)": "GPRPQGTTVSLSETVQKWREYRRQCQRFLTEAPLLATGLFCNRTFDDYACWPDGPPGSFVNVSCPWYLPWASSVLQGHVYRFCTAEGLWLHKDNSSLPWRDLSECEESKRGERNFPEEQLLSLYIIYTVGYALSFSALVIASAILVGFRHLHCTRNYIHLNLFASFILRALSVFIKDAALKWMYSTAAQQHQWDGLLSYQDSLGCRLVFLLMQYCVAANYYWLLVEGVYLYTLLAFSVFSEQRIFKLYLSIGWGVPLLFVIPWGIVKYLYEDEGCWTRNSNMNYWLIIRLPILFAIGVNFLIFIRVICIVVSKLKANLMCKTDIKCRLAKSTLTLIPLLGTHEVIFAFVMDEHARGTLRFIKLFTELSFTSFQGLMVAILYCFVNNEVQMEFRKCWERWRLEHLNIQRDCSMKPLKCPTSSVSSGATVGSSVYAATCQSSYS", "experiment": "cAMP production in βTC6 cells expressing GLP-1R endogenously (Method C2)", "format": "cell-based", "description": "(§10)  HEK-293T cells (Multispan inc., lot#.DC1267-062017) were suspended in cell culture media\n(§11) (DMEM 1X + GlutaMAX (Gibco 31966-021)) complemented with FBS 10% (Sigma Aldrich\n(§12)  βTC6 cells were suspended in HBSS buffer (Invitrogen) complemented with 20 mM HEPES (pH\n(§13) In vitro pharmacology on HEK-293T cells (EC50: Method C1)\n(§14) cells (Multispan inc., lot#.DC1267-062017) was determined by measuring their effects on cAMP\n(§15) production using the HTRF detection method (performed by UREkA SARL). The cells were distributed\n(§16) in 384-well microplates at a density of 1.0x10^4 cells/well. Stock solutions of the test compounds or the\n(§17) reference agonist were prepared at a concentration of 1 mM in DMSO. Then, compounds to be tested\n(§18) were diluted in cell culture media and transferred to the plate containing the cells to reach final assay"}, "C57BL/6J mice": {"system": "C57BL/6J mice", "experiment": "IPGTT in healthy mice 3, 6 or 9 h after i.v. dosing", "format": "in vivo", "conditions": "1 µg per mouse (10 nmol kg-1) i.v., glucose 2 g kg-1 i.p., fasted 9 h, n = 6, versus vehicle", "excerpt": "Supérieur et de la Recherche) ethics committees (protocol number 05049-06). For the dose-response study, animal procedures were approved by British Home Office under the UK Animal (Scientific Procedures) Act 1986 (Project Licence 70/7596). Lean male C57Bl/6J mice (6-8 weeks of age, body […]\nschedule, lights on at 07:00). Ad libitum access to water and normal chow (RM1, Special Diet Services) was provided unless otherwise stated. Mice were housed in groups of five. For the pharmacokinetics studies performed by TechMedILL service (PCBIS platform, CNRS UMS3286), mice were housed in polycarbonate cages (PCT2L12SHT, Allentown) enriched with play tunnels throughout the […]\nenvironment (22 ± 1 °C) with a relative humidity (50 ± 10 %) and a normal 12 hours light cycle (at 8:00 pm lights off). A standard chow diet (A04, SAFE, France) and tap water were provided ad libitum. […]\nAfter the acclimation period of 5 days, 20-25 g male C57Bl/6J mice 8 weeks old (Charles River laboratories) were randomized into groups (6 mice per group) according to their body weight. The mice were acutely treated with vehicle or 1 µg per mouse (10 nmol kg-1) of oligomers via i.v. injections (formulation: 4 µg mL-1 in PBS 1×) IPGTTs (glucose 2 g kg-1 i.p.) were performed after 3 or 6 hours of […]\n(§1) Blood glucose was measured before the administration of […]\nas §1"}, "SNAP-tagged human GLP-1R": {"target": "T2, SNAP-tagged human GLP-1R (Homo sapiens, UniProt P43220)", "T2 construct": "host or cells: INS-1 832/3 cells with endogenous GLP-1R deleted by CRISPR/Cas9", "T2 sequence (P43220 24-463)": "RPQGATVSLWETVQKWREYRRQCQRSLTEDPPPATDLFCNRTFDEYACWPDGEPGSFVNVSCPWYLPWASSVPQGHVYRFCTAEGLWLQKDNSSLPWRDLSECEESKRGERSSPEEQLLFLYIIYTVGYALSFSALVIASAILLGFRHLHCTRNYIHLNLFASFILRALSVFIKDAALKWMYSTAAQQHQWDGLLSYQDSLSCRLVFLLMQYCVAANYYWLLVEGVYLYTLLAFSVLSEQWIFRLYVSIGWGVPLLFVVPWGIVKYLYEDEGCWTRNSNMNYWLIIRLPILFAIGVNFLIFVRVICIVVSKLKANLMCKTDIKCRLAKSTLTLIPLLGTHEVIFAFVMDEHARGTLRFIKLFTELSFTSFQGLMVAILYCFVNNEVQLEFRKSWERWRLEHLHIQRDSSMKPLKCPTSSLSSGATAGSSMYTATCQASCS", "experiment": "SNAP-GLP-1R internalization by confocal microscopy in INS-1 832/3 cells", "format": "cell-based", "conditions": "10 nM ligand, 30 min, versus non-ureido peptides"}, "GLP-1R [2]": {"target": "T3, GLP-1R (Homo sapiens, UniProt P43220)", "T3 sequence (P43220 24-463)": "as above", "experiment": "cAMP production functional assay in HEK293 cells transfected with GLP-1R (Method C1)", "format": "cell-based", "parameters": "host or cells: HEK-293T", "description": "as §10, §11, §12, §13, §14, §15, §16, §17, §18"}, "GLP-1R [3]": {"target": "T3, GLP-1R", "experiment": "β-arrestin-2 recruitment assay in PathHunter CHO-GLP-1R cells", "format": "cell-based", "parameters": "host or cells: PathHunter CHO-GLP-1R-βarr2 cells", "conditions": "30 min stimulation at 37 °C, n = 5, versus non-ureido parents 10 and 13", "protocol": "(§2) signal measured at 665 nm by that measured at 620 nm (ratio). The results are expressed as a percent […]\n(§3) tested in each experiment at several concentrations to generate a concentration-response curve from which its EC50 value and SE are calculated using GraphPad Prism.\n(§4) In vitro pharmacology on immortalised CHO-GLP-1R cells (EC50: Method C3) PathHunter CHO-GLP-1R cells were stimulated for 30 min at 37°C with indicated concentration of agonist in serum free medium without phosphodiesterase inhibitors. The reaction was terminated by addition of cAMP detection reagents (cAMP Dynamic 2, Cisbio) and read by HTRF.\n(§5) β-arrestin-2 recruitment assay […]\n(§6) agonist in serum free medium. The reaction was terminated by addition of PathHunter detection reagents (DiscoverX) and luminescent signal recorded.\n(§7) Calculation of signal bias\n(§8) Biased signalling was quantified using a modified form of the operational model.[6] LogR values were calculated for each ligand in each assay, and ∆LogR were determined by subtracting from the […]\n(§9) Bias was then determined as ∆∆LogR by subtracting ∆LogR for […]"}, "GLP-1R [4]": {"target": "T3, GLP-1R", "experiment": "signal bias, cAMP vs β-arrestin-2, PathHunter CHO-GLP-1R cells (operational model)", "format": "cell-based", "parameters": "host or cells: PathHunter CHO-GLP-1R-βarr2 cells", "conditions": "relative to GLP-1-NH2 (2), n = 5", "protocol": "as §2, §3, §4, §5, §6, §7, §8, §9"}},
  "note": "*1 amine or outer side, *2 acyl side, *3 side chain or, on linkers, in order; H or OH if unused. The star is where a group is joined. X1 = C[C@@H](CN*)NC(=O)[C@@H](N)Cc1c[nH]cn1; CO = O=C([*:1])[*:2]",
  "data": [
    {"substance": "{X1-CO}-EGTFTSDLSKQLEEEAVRLFIEWLKNGGPSSGAPPSKKKKKK-NH2 [compound 14]", "values": [
      {"measurement": "half-life at 5 µM", "setting": "[1]", "value": 6.6, "unit": "h"},
      {"measurement": "Potency (%), Table S1", "setting": "mouse GLP-1 receptor; from EC50 in βTC6 cAMP assay, footnote: compare to GLP-1-NH2 (2)", "value": 118, "unit": "%"},
      {"measurement": "EC50", "setting": "mouse GLP-1 receptor; read-out: EC50 (GLP-1R potency), Table S1", "value": 90, "unit": "pM"},
      {"measurement": "blood glucose control, IPGTT 9 h after dosing", "setting": "C57BL/6J mice", "value": "strong ability to control blood glucose levels"},
      {"measurement": "endocytosis of the GLP-1R", "setting": "SNAP-tagged human GLP-1R", "value": "noticeably reduced"},
      {"measurement": "EC50", "setting": "GLP-1R [2]; HEK-293T cells exogenously expressing human GLP-1R, cAMP by HTRF, 10 min at 37 °C, Method C1, mean, n = 3 (2: n = 6), read-out: EC50 (GLP-1R potency)", "value": 1.1, "unit": "pM"},
      {"measurement": "Potency (%), percentage of potency compared to GLP-1-NH2", "setting": "GLP-1R [2]; from EC50 in HEK293 GLP-1R cAMP assay", "value": 287, "unit": "%"},
      {"measurement": "recruitment of β-arrestin to GLP-1R", "setting": "GLP-1R [3]", "value": "selectively diminished"},
      {"measurement": "signal bias (cAMP vs β-arrestin-2)", "setting": "GLP-1R [4]", "value": "strong preference for cAMP signalling"}
    ]}
  ]
}
